Columns and labels:
[1] = test system: Endothelin-converting enzyme (ECE); assay: ECE assay in SH-SY5Y neuroblastoma cells; assay type: cell-based, human; conditions: bryostatin 0.27 nM, BR-101 1 μM, BR-111 1 μM; FIG. 10
Method: ECE assay. SH-S757 neuroblastoma cells were incubated with bryostatin (0.27 nM), BR-101 (PCP-LA) (1 μM), and BR-111 (DHA-CP6) (1 μM). Endothelin-converting enzyme (ECE) was measured fluorimetrically using the method of Johnson and Ahn, Anal. Biochem. 2000; 286: 112-118. A sample of cell homogenate (20 μl) was incubated in 50 mM MES-KOH, pH 6.0, 0.01% C12E10 (polyoxyethylene-10-tauryl ether), and 15 μM McaBK2. (7-Methoxycournarin-4-acetyl [Ala7-(2,4-Dinitrophenyl)Lys9]-bradykinin trifluoroacetate salt) (Sigma-Aldrich). After 60 min at 37° C., the reaction was quenched by adding trifluoroacetic acid to 0.5%. The sample was diluted to 1.4 ml with water and the fluorescence was measured at ex=334 nm, em=398 nm.

[2] = test system: SH-SY5Y neuroblastoma cells; assay: Cell survival and proliferation (alamar Blue, CyQuant) in SH-SY5Y neuroblastoma cells; assay type: cell-based, human; conditions: for effect on proliferation: CyQuant staining, FIG. 11b; for effect on cell survival: alamar Blue, FIG. 11a
Method: AB Measurement and Cell Viability Assay. Aβ was measured using an Aβ1-42 human fluorimetric ELISA kit (Invitrogen) according to the manufacturer's instructions. Results were measured in a Biotek Synergy HT microplate reader. AlamarBlue and CyQuant NF (Invitrogen) according to the manufacturer's instructions.

PKCε = target: T1, PKCε (Homo sapiens, UniProt Q02156); conditions: Kanno et al.; cited from earlier work
T1 construct: purchased Calbiochem
T1 sequence (Q02156 1-737): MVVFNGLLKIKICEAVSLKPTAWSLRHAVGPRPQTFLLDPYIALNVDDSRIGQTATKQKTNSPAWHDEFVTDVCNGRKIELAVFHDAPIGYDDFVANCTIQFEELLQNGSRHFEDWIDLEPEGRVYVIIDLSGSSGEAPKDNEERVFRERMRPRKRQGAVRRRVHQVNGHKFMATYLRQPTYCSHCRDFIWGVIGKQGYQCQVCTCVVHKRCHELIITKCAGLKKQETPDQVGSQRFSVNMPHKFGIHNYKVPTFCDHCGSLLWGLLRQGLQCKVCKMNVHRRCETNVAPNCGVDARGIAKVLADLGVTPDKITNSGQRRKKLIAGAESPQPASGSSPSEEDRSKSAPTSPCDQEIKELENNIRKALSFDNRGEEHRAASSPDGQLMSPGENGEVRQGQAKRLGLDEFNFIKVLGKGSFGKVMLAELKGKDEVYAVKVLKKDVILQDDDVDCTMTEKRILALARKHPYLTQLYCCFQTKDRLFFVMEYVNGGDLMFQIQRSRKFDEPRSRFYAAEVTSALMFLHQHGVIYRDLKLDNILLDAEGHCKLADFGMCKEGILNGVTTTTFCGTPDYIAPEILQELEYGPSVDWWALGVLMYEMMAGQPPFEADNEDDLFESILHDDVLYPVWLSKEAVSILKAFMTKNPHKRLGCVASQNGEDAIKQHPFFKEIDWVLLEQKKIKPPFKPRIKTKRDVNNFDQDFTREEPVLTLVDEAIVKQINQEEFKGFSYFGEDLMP

PKCα = target: T2, PKCα (Homo sapiens, UniProt P17252); assay: Protein kinase C assay, recombinant PKC alpha; assay type: biochemical; conditions: data not shown
T2 construct: purchased Calbiochem
Method: Protein kinase C assay. Recombinant PKC (1 ng of alpha or epsilon isofonn) was mixed with the BR-101 (UCP-LA) in the presence of 10 micromoiar histones, 5 mM CaCl2, 1.2 μg/μl phosphatidyl-L-serine, 0.18 μg/μl 1,2-dioctanoyl-sn-glycerol (DAG), […], […] (pH 7.4), 0.8 tnIVI EDTA, 4 mM EGTA, 4% glycerol, 8 μg/ml aprotinin, 8 μ/ml leupeptin, and 2 mM benzamidine. 0.5 micro Ci [^y32P]ATP was added. The incubation mixture was incubated for 15 min at 37 degrees in a total volume of 10 microliters. The reaction was stopped by spotting the reaction mixtures on 1×2 cm strips of cellulose phosphate paper (Whatman P81) and immediately washing twice for 1 hr in 0.5% H3PO4. The cellulose phosphate strips were counted in a scintillation counter. In some experiments, phosphatidylserine, diacylglycerol, and/or calcium were removed.

PKCδ = target: T3, PKCδ (Homo sapiens, UniProt Q05655); assay: Protein kinase C assay, purified PKC isozymes: PKCδ; assay type: biochemical; conditions: higher concentrations, about 1-100 μM; data not shown
T3 construct: purchased Calbiochem
T3 sequence (Q05655 whole entry): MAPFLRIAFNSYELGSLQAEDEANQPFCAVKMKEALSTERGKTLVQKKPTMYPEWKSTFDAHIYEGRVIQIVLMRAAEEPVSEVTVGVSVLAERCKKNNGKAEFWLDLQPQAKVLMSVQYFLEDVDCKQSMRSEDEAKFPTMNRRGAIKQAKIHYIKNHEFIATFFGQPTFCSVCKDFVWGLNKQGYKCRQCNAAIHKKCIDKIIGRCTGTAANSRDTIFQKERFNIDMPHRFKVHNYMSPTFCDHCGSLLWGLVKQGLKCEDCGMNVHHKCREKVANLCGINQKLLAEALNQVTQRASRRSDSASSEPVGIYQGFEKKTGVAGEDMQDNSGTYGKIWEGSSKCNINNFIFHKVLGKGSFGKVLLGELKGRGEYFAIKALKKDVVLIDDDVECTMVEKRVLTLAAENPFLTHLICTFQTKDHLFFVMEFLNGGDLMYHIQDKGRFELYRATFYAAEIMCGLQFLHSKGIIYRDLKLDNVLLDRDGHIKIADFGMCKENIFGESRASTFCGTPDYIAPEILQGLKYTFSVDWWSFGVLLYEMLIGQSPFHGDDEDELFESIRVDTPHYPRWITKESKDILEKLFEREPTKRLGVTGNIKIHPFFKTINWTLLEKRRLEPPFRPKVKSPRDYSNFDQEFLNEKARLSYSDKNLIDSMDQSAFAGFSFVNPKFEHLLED
Method: (§1) Protein kinase C assay. Rat hippocampal cells were cultured and scraped in 0.2 ml homogenization buffer (20 triM Tris-HCl, pH 7.4, 50 mM NaF, 1 μg/ml leupeptin, and 0.1 mM PMSF) and homogenized by sonication in a Marsonix micro-probe sonicator (5 see, 10W). To measure PKC, 10 ul of cell homogenate or purified. PKC isozyme (purchased from Calbiochem) was incubated for 15 min at 37° C. in the presence of 10 μM histones, 4.89 mM CaCl2, 1.2 μg/μl phosphatidyl-L-serine, 0.18 μg/μl 1,2-dioctanoyl-sn-glycerol, 10 mM MgCl2, 20 mM HEPES (pH 7.4), 0.8 mM EDTA, 4 mM EGTA, 4% glycerol, 8 μg/ml aprotinin, 8 μg/ml leupeptin, and 2 mM benzamidine. 0.5 μCi [^γ-32P]ATP was added and ^32P-phosphoprotein formation was measured by adsorption onto phosphocellulose as described previously. Nelson and Alkon, J. Neurochemistry. 1995; 65: 2350-57. For measurements of activation by BR-101 (DCP-LA) and similar compounds, PKC activity was measured in the absence of diacylglycerol and phosphatidyl serine, as described by Kanno et al., and PKC δ, ε, η, and μ were measured in the absence of added EGTA and CaCl2, as described by Kanno et al., J. Lipid Res. 2006; 47: 1146-50. […]
(§2) To determine their PKC isozyme specificity, the new compounds were preincubated with purified PKC for five minutes and the PKC activity was measured radiometrically.

other PKC isoforms = assay: Protein kinase C assay, purified PKC isozymes: other isoforms; assay type: biochemical; conditions: data not shown
Method: as §1, §2

PKCγ = target: T4, PKCγ (Homo sapiens, UniProt P05129); assay: Protein kinase C assay, purified PKC isozymes: PKCγ; assay type: biochemical; conditions: higher concentrations, 50-100 μM; data not shown
T4 construct: purchased Calbiochem
Method: as §1, §2

Structure (SMILES)	ECE activity [1]	effect on proliferation [2]	effect on cell survival [2]	potency for PKCε over other PKC isozymes (PKCε)	effect on PKCα (PKCα)	effect on PKCδ (PKCδ)	effects on the other PKC isoforms (other PKC isoforms)	effect on PKCγ (PKCγ)
CCC1CC1CC1CC1CC1CC1CC1CC1CC1CC1CC1CC1CCC(=O)OC (centres unmarked) [BR-111, methyl-3-(2-((2-((2-((2-((2-((2-ethylcyclopropyl)methyl)cyclopropyl)methyl)cyclopropyl)methyl)-cyclopropyl)methyl)cyclopropyl)methyl)cyclopropyl)propanoate]	sustained increase	no effect	no effect	–	–	–	–	–
CCCCCC1CC1CC1CC1CCCCCCCC(=O)O (centres unmarked) [BR-101, 8-[2-(2-pentyl-cyclopropylmethyl)-cyclopropyl]-octanoic acid]	sustained increase	no effect	no effect	greater than 7 fold	not affected	partially inhibited	relatively small effects	activated

— patent US11820745B2, “PKC-activating compounds for the treatment of neurodegenerative diseases” (Synaptogenix, Inc., priority 2008, dated 2023)
